Columns and labels:
[1] = system: TPA induced ear inflammation model in C57BL/6 mice; experiment: IS217 alone and in combination with methotrexate and betamethasone in TPA induced ear inflammation model; type: in vivo
Method: The experimental procedure, doses and route of administration were same as IMQ model. Test item IS217 was administered subcutaneously either alone or in combination with standard methotrexate (MTX) and betamethasone (BD) to diseased animals.

[2] = system: IMQ induced psoriasis mouse model; experiment: Proof of concept efficacy study, SC and topical route, IMQ-induced psoriasis mice model; type: in vivo, BALB/c mice
Method: The study objective was to validate the efficacy of IS 217 through Parental route and to study the efficacy of 1% IS 217 Cream Formulation through topically and to fix dose levels and treatment mode for further proof of concept studies and included with SC dose ([…] and 1.2 mg/kg) as proof of concept studies.
The study was conducted to evaluate efficacy of test compound IS217 (topical and subcutaneous route) on IMQ induced psoriasis mouse model.
Test items: IS217 cream formulation (topical treatment) and IS217 powder vials (subcutaneous treatment) along with placebo were provided.
Standard Drugs: 1.0.01% Batamethasone cream (Betnovate®); 100 mg/4 ml bevacuzimab (Avastin®)
Study animals: 8-9 weeks old male BALB/c mice were used for the study.
Treatment period was from day 1 to day 14. IMQ cream application: 5% IMQ cream, 65 mg was applied on shaved back and 5 mg on each ear during study period. Treatment regimen: treatment to be given twice a day-test drug high dose. 2-hour difference was taken between application of IMQ and application of test drug. 8-hour difference was taken between second application of test drug.
Required quantity of IS217 compounds was weighed on Sartorius weighing balance. Weighed amount was dissolved in 10% Propylene glycol.
• IMQ (Imigod, Glenmark pharmaceuticals) was weighed every day prior to application. • 65 mg of 5% IMQ cream was applied on shaved back of animals with help of spatula. 5 mg IMQ cream was applied on each ear of mouse. • IMQ application was done every day for 14 days and on day 15 studies were terminated. (Except for group 4 and group 5) • Group 4 was terminated on day 17 (post 14 days of treatment) • Group 5 was terminated on day 21 (post 14 days of treatment) • Group 4 and 5 received similar duration of test formulation as per group 3. • Group 4 received 17 days IMQ application, group 5 received 20 days IMQ application.
• Treatment to all the groups were done two hours post IMQ cream application • Formulation for topical application were weighted daily on Sartorius balance • Formulation for SC treatment was prepared fresh every day as per procedure mentioned above. • Standard drug Betamethasone was weighed daily and applied topically to respective treatment group • Bevacizumab was prepared fresh at the time of dosing. • All the treatments were given as per study design

[3] = human, microsomes
Method: Metabolic stability assay was performed to determine in vitro half-life and intrinsic clearance of test item. […] Following centrifugation, the supernatant was analyzed on HPLC-UV.

[4] = system: P-VEGFR-2, VEGFR-2, NRP-1, Akt, p-NRP1, P-Akt, ERK1/2, P-ERK1/2, p-38, P-p-38; experiment: Biomarker estimation by western blotting; type: cell-based; conditions: 500 and 1000 μg/ml, western blot
Excerpt: Targets screened are as follows: P-VEGFR-1, P-VEGFR-2, P-VEGFR-3, VEGFR-1, VEGFR-2, VEGFR-3, NRP-1, MPO, Akt, PAkt, ERK1/2, P-ERK1/2, MAPK, p-38, P-p-38, p-NRP1 and GAPDH.

[5] = system: HaCaT cell lines; experiment: Cell cycle assay (Sub-G0/G1, pro-apoptotic effect); type: cell-based, human; conditions: 48 h, vs untreated
Excerpt: HaCaT cell lines were used as test system since it is widely used for studying anti-psoriatic effects. Curcumin dissolved in DMSO was taken as positive control for validation purpose. Apoptotic effect on HaCaT cell lines was detected by flow cytometry analysis.

[6] = system: Human endothelial cells (EA.hy.926); experiment: Tube formation assay in EA.hy.926 cells; type: cell-based
Method: This assay was performed to determine ability of various compounds to promote or inhibit tube formation. Compounds that are able to inhibit tube formation could be useful in various diseases, such as cancer, where tumors stimulate new blood vessel formation to receive oxygen and nutrients in order to grow beyond a relatively small size.
Human endothelial cells (EA.hy.926) grown in DMEM and about 10% FBS were used as test system to determine angiogenic effect of IS217 by assessing inhibitory effects of test item on endothelial cells tube formation.
Prior to the tube formation assay, test item of concentration ranging 1 μg/ml, 10 μg/ml, 100 μg/ml, 500 μg/ml and 1000 μg/ml were used to treat endothelial cells for its cytotoxicity effect to assess suitable concentration for tube formation assay. The cells corresponding to positive control group were treated with paclitaxel. Anthralin was also used as positive control for in house validation.
After about 24 hours of incubation in CO2 incubator, 20 μl of 5 mg/ml of MTT was added to identify percentage cytotoxicty by biotek synergy HT plate reader. After that cells were processed for tube formation assay with selected concentrations of TI. The degree of angiogenesis progression was assessed based on visual pattern recognition of photomicrographs of EA.hy.926 cells.

[7] = system: HUVEC
[8] = system: IMQ induced psoriasis model using Balb/c mice; type: in vivo
Method: The experimental procedure and doses and route of administration are same as IMQ model. Test item IS217 was administered subcutaneously to diseased animals at different dose levels of 0.15 mg/kg, 0.30 mg/kg, 0.60 mg/kg, 1.2 mg/kg, 2.4 mg/kg and 4.8 mg/kg.

[9] = IS217 SC 1.2 mg/kg q.d., 10 days

H-FAKKFAKKFK-OH [IS217, H-Phe-Ala-Lys-Lys-Phe-Ala-Lys-Lys-Phe-Lys-OH]
ear thickness (absolute, histopathology, ear punch biopsy) ([1]; IS217 (1.2 mg/kg) < MTX (1.5 mg/kg), p < 0.01): Decreased ear
edema and hyperkeratosis [1, 9]: IS217 decreased
inflammatory cytokines in ear homogenate (ELISA and histopathology score) IL-23, IL-6, TNF-α and MPO [1, 9]: IS217 decreased
inhibitory activity against TPA induced increase in ear thickness ([1]; IS217 alone (SC 1.2 mg/kg q.d. per Table 6)): 44.77%
effect in combination with MTX ([1]; TPA model combination study): good effect
absolute ear thickness ([1]; alone as well as in combination with standard drugs): significant reduction
Shelf life of IS217 API: about 2 years
appearance of reconstituted solution (0.9% sodium chloride): clear and colourless
Dissolution of the lyophilized powder completed in (reconstitution with 0.9% sodium chloride): less than 2 minutes
only epidermal hyperplasia (skin) ([2]; 0.6 mg/kg SC): reduced
IL-17 level in ear, skin, and serum matrix ([2]; 0.6 mg/kg and 1.2 mg/kg SC): significant decrease
TNF-α in ear homogenates samples ([2]; 0.6 mg/kg and 1.2 mg/kg SC): decreased
ear thickness ([2]; 0.6 mg/kg and 1.2 mg/kg SC): significantly decreased
overall efficacy versus the standard drug (Bevacizumab) ([2]; 0.6 mg/kg and 1.2 mg/kg SC): comparable
psoriatic score, ear weight ([2]; 0.6 mg/kg and 1.2 mg/kg SC): significant decrease
scaling, erythema and skin thickness ([2]; 0.6 mg/kg and 1.2 mg/kg SC): decrease
Epidermal hyperplasia, parakeratosis, leukocyte infiltration ([2]; 0.6 mg/kg and 1.2 mg/kg, vs vehicle): significantly decreased
epidermal hyperplasia, parakeratosis in skin ([2]; 1.2 mg/kg SC): reduced
spleen weight ([2]; SC administration): Decrease
metabolic stability [3]: moderately metabolically stable
protein levels of P-VEGFR-2, VEGFR-2, NRP-1, Akt, p-NRP1, P-Akt, ERK1/2, P-ERK1/2, p-38, P-p-38 [4]: downregulated
increase in pro-apoptotic cells (Sub-G0/G1 population) ([5]; 100 μg/mL): 1.2 fold
increase in pro-apoptotic cells (Sub-G0/G1 population) ([5]; 500 μg/mL): 5.0 fold
increase in pro-apoptotic cells (Sub-G0/G1 population) ([5]; 1000 μg/mL): 6.8 fold
increase in pro-apoptotic cells (Sub-G0/G1 population) ([5]; 5000 μg/mL): 1.1 fold
inhibition of endothelial morphogenesis on matrigel ([6]; Ea.hy.926, 500 μg/ml): Complete inhibition
endothelial tube formation ([6]; Ea.hy.926, all test concentrations 1 μg/ml to 1000 μg/ml): block endothelial tube formation
inhibition of healthy unstimulated cells (CC50 experiment) [7]: no inhibition
inhibition of VEGF stimulated HUVEC cells ([7]; VEGF stimulated): dose dependent inhibition
inhibition of ear thickness ([8]; 0.3 mg/kg SC): 36.34%
psoriatic score PASI and ear punch biopsy ([8]; IS217 SC 0.15-4.8 mg/kg q.d., 8 days): lowering of
TNF-α level ([8]; SC 0.15-4.8 mg/kg): no trend
ear thickness (life phase), punch biopsy, cumulative psoriatic scoring and spleen weight ([8]; dose level of 0.3 mg/kg SC): maximum effect
Ear homogenate TNF-α, IL-23, MPO ([8]; p < 0.01): MPO reduction

From US20240123022A1, “A STABLE ANTI-ANGIOGENIC AND ANTI-INFLAMMATORY PHARMACEUTICAL FORMULATION AND PHARMACEUTICAL COMBINATION FOR TREATMENT AND PREVENTION OF PSORIASIS” (priority 2021, published 2024)
